Assay results taken from patent US9937227B2, “Humanin, analogs and cancer treatment methods and uses thereof” (LOS ANGELES BIOMEDICAL RESEARCH INSTITUTE AT HARBOR-UCLA …, priority 2014, dated 2018).
Like-named read-outs stand apart in the source and are kept apart here.

Key:
B16 melanoma cells = format: cell-based
From the text: Furthermore, the autophagy induction of humanin may be related to its apparent effects of enhancing longevity observed in other systems.

[1] = Table 1; cited from earlier work
Leydig cells [2] = assay: Testosterone of cultured Leydig cells treated with ketoconazole; format: cell-based, rat; conditions: KTZ 10 mcg/ml, 4 hours
Description: Leydig cells were isolated based on a previously described procedure (Gao, et al., 1996; Klinefelter, et al., 1987; Salva, et al., 2001). Briefly, the testes were decapsulated, and then dissociated with collagenase, dispase, DNase and shaking for 15 min at 34° C. The seminiferous tubules were removed by filtration through 40 μm nylon mesh (BD Falcon, Franklin Lakes, N.J.). Leydig cells were then harvested after centrifugation and purified using a Percoll gradient (GE Healthcare, Uppsala, Sweden) and centrifugation (60 minutes at 20,000 g at 4° C.). Enriched Leydig cells were harvested at densities between 1.065 (red) and 1.075 (blue) g/cm^3 from the percoll gradient. These Leydig cells were washed by diluting the percoll and excluding residual germ cells and other cells using a BSA density gradient with centrifugation. The purity of the Leydig cells was >90%, as determined by histochemical staining for 3β-hydroxysteroid dehydrogenase. The cell viability, as assessed by trypan blue exclusion, was greater than 90%. […]
Testosterone concentrations in plasma, testes, and culture medium were measured by a previously described radioimmunoassay (Lue, et al., 2010) with a minimal detection limit of 0.1 ng/ml. […]

Leydig cells [3] = assay: Histology of rat testes: Leydig cells; conditions: EDS for three days
testosterone = conditions: with or without EDS pre-treatment
male germ cells [4] = tested on: male germ cells
male germ cells [5] = format: in vivo, mouse; conditions: middle stages
Description: Onco-infertility is a major concern of cancer survivors. In this study, it was investigated whether HNG will prevent chemotherapy (Temozolomide, TMZ, an alkylating agent used clinically to treat brain tumors) induced male germ cell apoptosis in SCID mice bearing subcutaneous implants of human medulloblastoma. DAOY human pediatric medulloblastoma cells (1.0×10^8 cells/animal) were injected subcutaneously into the right flank of 7-week old male SCID mice. After 3 weeks to allow tumor growth, each group of mice (n=4 to 5/group) received one of the following treatments: 1) vehicle (control); 2) HNG intra-peritoneal (IP) injection (HNG, 5 mg/Kg BW/day, 3 days pretreatment +5 days treatment); 3) TMZ IP injection (TMZ, 50 mg/Kg BW/day×5 days); 4) TMZ and HNG IP injections (TMZ+HNG). Mice were sacrificed 24 hours after the last injection, subcutaneous tumors were dissected and weighed (FIG. 26) and male germ cell apoptosis was assessed by TUNEL staining and quantified (Apoptosis Index, AI, number of apoptotic germ cell/Sertoli cell, FIG. 27). […] HNG ameliorated TMZ-induced germ cell apoptosis without affecting the chemotherapeutic effect on transplanted medulloblastoma tumor in an immunocompromised mouse model.

CCN(CC)CCCC(C)Nc1ccnc2cc(Cl)ccc12 (centres unmarked) [chloroquine]
additive effect of humanin in doxorubicin treated B16 cells, with autophagy inhibitor (B16 melanoma cells): diminished

Cn1cnc(=N)c2[nH]cnc21 [3-MA]
additive effect of humanin in doxorubicin treated B16 cells, with autophagy inhibitor (B16 melanoma cells): diminished

MAPRGFSALLLLTSEIDLPVKRRA [HN-C8A, HN mutant, Cys8 to Ala]
Cytoprotective Action [1]: Not effective, prevents

CC(=O)N1CCN(c2ccc(OCC3COC(Cn4ccnc4)(c4ccc(Cl)cc4Cl)O3)cc2)CC1 (centres unmarked) [KTZ, ketoconazole]
testosterone levels compared to control (Leydig cells [2]): lowered the testosterone levels significantly

CS(=O)(=O)OCCOS(C)(=O)=O [EDS, ethane dimethanesulfonate]
Leydig cells in the interstitial spaces compared to control (Leydig cells [3]): depletion of Leydig cells | intratesticular testosterone levels (testosterone): decreased to very low levels | serum testosterone levels (testosterone): decreased to very low levels | germ cell apoptosis compared to control (male germ cells [4]; early (I-VI) and late (IX-XIV) stages, EDS pre-treated): did not significantly increase | germ cell apoptosis compared to control (male germ cells [4]; middle (VII-VIII) stages, EDS 80 mg/kg pre-treatment): significant acute cytotoxic effects

MAPRGASCLLLLTSEIDLPVKRRA [HN-F6A]
Cytoprotective Action [1]: Similar/more effective

Cn1nnc2c(C(N)=O)ncn2c1=O [TMZ, Temozolomide]
Apoptosis Index (AI, apoptotic germ cell/Sertoli cell) (male germ cells [5]): 0.058±0.006
